How the values were obtained:
[1] = system: human chorionic gonadotropin releasing factor (hCG-RF), glycoprotein purified from human term placenta, peptidase activity degrading GnRH; test: Loss of GnRH immunoreactivity on incubation with hCG-RF (GnRH-RIA after Sephadex G-150); assay type: biochemical; settings: hCG-RF 41 ug, GnRH 40 ng, 24 h at 4° C.
Description: The effect of purified hCG-RF on GnRH immunoreactivity was studied. […] Chromatography of 0.1 ml of the incubate on Sephadex G-150 (1×20 cm in 0.01M TRIS, 0.001M DTT) followed, collecting 1 ml fraction. Immunoreactive GnRH was determined by GnRH-RIA.

[2] = target: placental receptor recognizing synthetic GnRH; settings: read-out: dissociation constant of the placental receptor for synthetic GnRH; cited from earlier work

With N=C(N)c1ccc(N)cc1 [para-amino-benzamidine] the “reversal of the loss of GnRH immunoreactivity effected by incubation with hCG-RF” value ([1]; 175 mM para-amino-benzamidine added with the buffer) was “totally reversed”.

For CC(C)C[C@H](NC(=O)CNC(=O)[C@H](Cc1ccc(O)cc1)NC(=O)[C@H](CO)NC(=O)[C@H](Cc1c[nH]c2ccccc12)NC(=O)[C@H](Cc1c[nH]cn1)NC(=O)[C@@H]1CCC(=O)N1)C(=O)N[C@@H](CCCNC(=N)N)C(=O)N1CCC[C@H]1C(=O)NCC(N)=O [synthetic GnRH, pyro-glu-his-trp-ser-tyr-gly-leu-arg-pro-gly-NH2], the Kd [2] is given as 100 nM.

In the case of bacitracin, the “reversal of the loss of GnRH immunoreactivity effected by incubation with hCG-RF” value ([1]; 5000 unit bacitracin added with the buffer) is reported as “totally reversed”.
